Here are results for 37 compounds from patent publication US20250313535A1, “ALPHA 4 BETA 7 INTEGRIN MODULATORS AND USES THEREOF” (DICE MOLECULES SV, INC., priority 2022, published 2025).

SMILES strings stand for the structures.

One test addresses α4β1 integrin (Homo sapiens (Human), UniProt P05556+P13612). Nature of the test: Integrin Adhesion Assay: Protocol 5 (VCAM-coated plate, RPMI-8866 cells with stable LOF mutation of the ITGB7 gene). Type of test: cell-based. Conditions: Protocol 5; RPMI-8866 cells with LOF mutation of ITGB7, VCAM; read-out: Mean IC50 α4β1 KO. A digest of the protocol:
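RPMI-8866 B cells with CRISPR/Cas9 ITGB7 knockout (clonal, verified by flow cytometry) adhered to VCAM-coated wells for 1 h at 37° C in HEPES/NaCl buffer with 1 mM MnCl2, 0.1 mM CaCl2, 1% BSA, 1% DMSO. Bound cells quantified by CellTiter-Glo luminescence after washing; % inhibition versus DMSO and control, 4-parameter fit.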

The next test deals with α4β7 integrin (Homo sapiens (Human), UniProt P13612+P26010). Nature of the test: Integrin Adhesion Assay: Protocol 4 (MAdCAM-coated plate, RPMI-8866 cells with stable LOF mutation of the ITGB1 gene). To be noted: Protocol 4; RPMI-8866 cells with LOF mutation of ITGB1, MAdCAM; read-out: Mean IC50 α4β7 KO. Type of test: cell-based. A digest of the protocol: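 RPMI-8866 cells with CRISPR/Cas9 knockout of ITGB1 (2×10^6/mL) were added to MAdCAM-coated wells with compound (1% DMSO) in HEPES/NaCl buffer with 1 mM MnCl2, 0.1 mM CaCl2 and 1% BSA, then incubated 1 h at 37 °C. After four washes, adherent cells were quantified by CellTiter-Glo luminescence. Percent inhibition versus DMSO and control compound was fitted to 4-parameter curves.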
Chain of α4β7 integrin (P13612 34-1032): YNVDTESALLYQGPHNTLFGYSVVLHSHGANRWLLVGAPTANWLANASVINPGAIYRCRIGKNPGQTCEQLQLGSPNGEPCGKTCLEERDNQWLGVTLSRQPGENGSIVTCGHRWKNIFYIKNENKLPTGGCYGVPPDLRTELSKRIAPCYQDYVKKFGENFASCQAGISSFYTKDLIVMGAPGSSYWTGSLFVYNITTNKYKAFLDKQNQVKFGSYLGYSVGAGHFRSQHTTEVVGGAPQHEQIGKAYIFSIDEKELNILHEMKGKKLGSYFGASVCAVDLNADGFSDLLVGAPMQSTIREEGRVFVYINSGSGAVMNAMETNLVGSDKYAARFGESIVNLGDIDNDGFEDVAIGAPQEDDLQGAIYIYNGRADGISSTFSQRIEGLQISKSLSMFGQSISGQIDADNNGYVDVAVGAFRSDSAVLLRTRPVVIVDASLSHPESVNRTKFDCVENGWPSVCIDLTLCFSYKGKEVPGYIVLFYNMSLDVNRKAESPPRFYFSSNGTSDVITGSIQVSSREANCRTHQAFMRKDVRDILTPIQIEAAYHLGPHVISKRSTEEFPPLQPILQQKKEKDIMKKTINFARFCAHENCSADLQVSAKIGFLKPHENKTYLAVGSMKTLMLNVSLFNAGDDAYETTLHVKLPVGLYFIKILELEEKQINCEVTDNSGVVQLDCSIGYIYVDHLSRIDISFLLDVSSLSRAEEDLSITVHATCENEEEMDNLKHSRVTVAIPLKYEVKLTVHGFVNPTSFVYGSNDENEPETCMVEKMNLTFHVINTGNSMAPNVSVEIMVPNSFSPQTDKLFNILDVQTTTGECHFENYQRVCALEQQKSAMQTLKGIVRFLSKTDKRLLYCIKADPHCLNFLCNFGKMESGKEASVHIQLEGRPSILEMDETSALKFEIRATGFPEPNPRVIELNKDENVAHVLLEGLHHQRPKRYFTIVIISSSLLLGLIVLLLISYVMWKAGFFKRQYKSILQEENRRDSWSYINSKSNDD
Chain of α4β7 integrin (P26010 20-798): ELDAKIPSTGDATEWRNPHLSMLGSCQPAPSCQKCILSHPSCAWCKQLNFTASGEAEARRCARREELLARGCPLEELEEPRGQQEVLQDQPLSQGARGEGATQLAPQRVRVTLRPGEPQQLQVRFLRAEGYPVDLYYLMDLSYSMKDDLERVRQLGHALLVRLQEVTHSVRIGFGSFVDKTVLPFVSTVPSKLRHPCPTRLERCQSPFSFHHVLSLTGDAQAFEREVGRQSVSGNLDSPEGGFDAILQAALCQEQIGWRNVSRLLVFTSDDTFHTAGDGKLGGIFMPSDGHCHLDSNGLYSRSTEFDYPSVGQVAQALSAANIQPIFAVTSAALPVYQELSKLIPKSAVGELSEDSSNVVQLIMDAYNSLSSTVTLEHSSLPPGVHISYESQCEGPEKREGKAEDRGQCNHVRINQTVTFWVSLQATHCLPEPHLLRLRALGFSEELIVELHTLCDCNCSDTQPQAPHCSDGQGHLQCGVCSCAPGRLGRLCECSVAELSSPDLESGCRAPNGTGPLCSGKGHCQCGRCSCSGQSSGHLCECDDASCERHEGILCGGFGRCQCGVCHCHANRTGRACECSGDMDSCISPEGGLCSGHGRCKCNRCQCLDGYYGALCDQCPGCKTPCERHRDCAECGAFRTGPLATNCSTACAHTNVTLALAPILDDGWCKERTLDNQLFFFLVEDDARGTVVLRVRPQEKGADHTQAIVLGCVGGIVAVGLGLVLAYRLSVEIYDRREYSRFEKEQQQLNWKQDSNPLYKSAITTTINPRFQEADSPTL

Chain of α4β1 integrin (P13612 34-1032): as the sequence (P13612 34-1032) above
Chain of α4β1 integrin (P05556 21-798): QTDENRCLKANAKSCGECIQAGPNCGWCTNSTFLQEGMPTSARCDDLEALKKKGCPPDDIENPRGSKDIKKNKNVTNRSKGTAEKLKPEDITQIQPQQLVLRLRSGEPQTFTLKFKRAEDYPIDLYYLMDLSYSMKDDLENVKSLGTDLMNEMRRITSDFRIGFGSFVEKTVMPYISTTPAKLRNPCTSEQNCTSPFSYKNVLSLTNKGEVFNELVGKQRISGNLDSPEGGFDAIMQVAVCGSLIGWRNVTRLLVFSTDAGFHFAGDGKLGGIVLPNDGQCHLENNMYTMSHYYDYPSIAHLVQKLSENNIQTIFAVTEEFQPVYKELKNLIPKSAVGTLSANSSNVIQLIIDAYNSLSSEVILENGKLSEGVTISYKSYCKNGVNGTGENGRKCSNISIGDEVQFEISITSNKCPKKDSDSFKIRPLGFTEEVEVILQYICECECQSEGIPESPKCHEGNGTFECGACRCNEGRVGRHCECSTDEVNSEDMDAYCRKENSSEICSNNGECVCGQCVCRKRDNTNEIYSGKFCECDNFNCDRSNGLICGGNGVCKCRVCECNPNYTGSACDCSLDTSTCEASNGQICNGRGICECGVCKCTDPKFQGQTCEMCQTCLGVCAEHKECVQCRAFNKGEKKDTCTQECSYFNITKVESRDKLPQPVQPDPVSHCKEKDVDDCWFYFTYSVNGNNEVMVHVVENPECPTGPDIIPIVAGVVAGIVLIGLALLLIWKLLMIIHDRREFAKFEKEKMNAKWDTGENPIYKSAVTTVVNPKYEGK

As to `COc1c(CN2CCCCC2)ccc(Cl)c1-c1cccc2c(C[C@H](NC(=O)C3(C(F)(F)F)CCN(CC(F)(F)F)CC3)C(=O)O)cccc12` [Compound 799], the values for the IC50 on α4β1 integrin and on α4β7 integrin were above 1000 nM and below 10 nM, respectively.

As for `COc1cc(CN2CCCCC2)cnc1-c1cccc2c(C[C@H](NC(=O)C3(C(F)(F)F)CCN(CC(F)(F)F)CC3)C(=O)O)cccc12` [Compound 800], the 50% inhibitory concentration (IC50) at α4β1 integrin was above 1000 nM; at α4β7 integrin it was below 10 nM.

Turning to `O=C(O)[C@H](Cc1cccc2c(-c3c(CN4CCCCC4)ccc4ccncc34)cccc12)NC(=O)C1(C(F)(F)F)CCN(CC(F)(F)F)CC1` [Compound 802], the IC50 is above 1000 nM on α4β1 integrin and below 10 nM on α4β7 integrin.

For `O=C(O)[C@H](Cc1cccc2c(-c3cccc4c(CN5CCCCC5)cncc34)cccc12)NC(=O)C1(C(F)(F)F)CCN(CC(F)(F)F)CC1` [Compound 803], the figures for the IC50 on α4β1 integrin and at α4β7 integrin were above 1000 nM and 10 to 100 nM, respectively.

For the compound `COc1cc(CN2CCCCC2)cc(Cl)c1-c1cccc2c(C[C@H](NC(=O)C3(C(F)(F)F)CCN(CC(F)(F)F)CC3)C(=O)O)cccc12` [Compound 804], the IC50 on α4β1 integrin was 100 to 1000 nM; at α4β7 integrin, below 10 nM.

As for `COc1ccc(CN2CCN(CC(C)C)CC2)c(OC)c1-c1cccc2c(C[C@H](NC(=O)C3(C(F)(F)F)CCN(CC(F)(F)F)CC3)C(=O)O)cccc12` [Compound 805], the IC50 at α4β1 integrin is 100 to 1000 nM; on α4β7 integrin, below 10 nM.

With `COc1ccc(CN2CCN(Cc3ccc(C(F)(F)F)cc3)CC2)c(OC)c1-c1cccc2c(C[C@H](NC(=O)C3(C(F)(F)F)CCN(CC(F)(F)F)CC3)C(=O)O)cccc12` [Compound 806], the half-inhibitory concentration (IC50) at α4β1 integrin is above 1000 nM; at α4β7 integrin, 10 to 100 nM.

Regarding `COc1ccc(CN2CCC(c3ccccc3)CC2)c(OC)c1-c1cccc2c(C[C@H](NC(=O)C3(C(F)(F)F)CCN(CC(F)(F)F)CC3)C(=O)O)cccc12` [Compound 807], the values for the IC50 on α4β1 integrin and at α4β7 integrin were above 1000 nM and below 10 nM, respectively.

Take `COc1ccc(CN2CCC(c3ccncc3)CC2)c(OC)c1-c1cccc2c(C[C@H](NC(=O)C3(C(F)(F)F)CCN(CC(F)(F)F)CC3)C(=O)O)cccc12` [Compound 808]: the 50% inhibitory concentration (IC50) is 100 to 1000 nM at α4β1 integrin and below 10 nM at α4β7 integrin.

In the case of `COc1ccc(CN2CCCC3(CCN(Cc4ccccc4)CC3)C2)c(OC)c1-c1cccc2c(C[C@H](NC(=O)C3(C(F)(F)F)CCN(CC(F)(F)F)CC3)C(=O)O)cccc12` [Compound 809], the values for the half-maximal inhibitory concentration (IC50) on α4β1 integrin and at α4β7 integrin were 100 to 1000 nM and below 10 nM, respectively.

As to `COc1ccc(CN2CCN(C)C(C)(C)C2)c(OC)c1-c1cccc2c(C[C@H](NC(=O)C3(C(F)(F)F)CCN(CC(F)(F)F)CC3)C(=O)O)cccc12` [Compound 810], the half-maximal inhibitory concentration (IC50) on α4β1 integrin was 100 to 1000 nM; at α4β7 integrin it was below 10 nM.

With `COc1ccc(CN2CC3CCCCC3C2)c(OC)c1-c1cccc2c(C[C@H](NC(=O)C3(C(F)(F)F)CCN(CC(F)(F)F)CC3)C(=O)O)cccc12` (some centres unmarked) [Compound 811], the concentration for half-maximal inhibition (IC50) was above 1000 nM on α4β1 integrin and below 10 nM at α4β7 integrin.

For `COc1ccc(CN2CCCC(C)(C)CC2)c(OC)c1-c1cccc2c(C[C@H](NC(=O)C3(C(F)(F)F)CCN(CC(F)(F)F)CC3)C(=O)O)cccc12` [Compound 812], the figures for the IC50 on α4β1 integrin and on α4β7 integrin were above 1000 nM and 10 to 100 nM, respectively.

As for `COc1ccc(CN2CCC3(CCCCC3)CC2)c(OC)c1-c1cccc2c(C[C@H](NC(=O)C3(C(F)(F)F)CCN(CC(F)(F)F)CC3)C(=O)O)cccc12` [Compound 813], the concentration for half-maximal inhibition (IC50) at α4β1 integrin was above 1000 nM; on α4β7 integrin it was below 10 nM.

Regarding `COc1ccc(CN2CC(C(F)(F)F)C2)c(OC)c1-c1cccc2c(C[C@H](NC(=O)C3(C(F)(F)F)CCN(CC(F)(F)F)CC3)C(=O)O)cccc12` [Compound 814], the IC50 was above 1000 nM on α4β1 integrin and 10 to 100 nM on α4β7 integrin.

On to `COc1ccc(CN2CC(c3ccccc3)C2)c(OC)c1-c1cccc2c(C[C@H](NC(=O)C3(C(F)(F)F)CCN(CC(F)(F)F)CC3)C(=O)O)cccc12` [Compound 815], for which the values for the IC50 on α4β1 integrin and on α4β7 integrin were above 1000 nM and 10 to 100 nM, respectively.

`COc1ccc(CN2CCN(C3CCC3)CC2)c(OC)c1-c1cccc2c(C[C@H](NC(=O)C3(C(F)(F)F)CCN(CC(F)(F)F)CC3)C(=O)O)cccc12` [Compound 816]: the IC50 on α4β1 integrin is 100 to 1000 nM; at α4β7 integrin, below 10 nM.

For `COc1ccc(CN2CC3C(C2)C3(C)C)c(OC)c1-c1cccc2c(C[C@H](NC(=O)C3(C(F)(F)F)CCN(CC(F)(F)F)CC3)C(=O)O)cccc12` (some centres unmarked) [Compound 817], the half-inhibitory concentration (IC50) is 100 to 1000 nM at α4β1 integrin and below 10 nM at α4β7 integrin.

Turning to `COc1ccc(CN2CCC(C(C)(C)C)CC2)c(OC)c1-c1cccc2c(C[C@H](NC(=O)C3(C(F)(F)F)CCN(CC(F)(F)F)CC3)C(=O)O)cccc12` [Compound 818], the results for the half-inhibitory concentration (IC50) on α4β1 integrin and on α4β7 integrin were above 1000 nM and below 10 nM, respectively.

As to `COc1ccc(CN2CCC(C)(C)CC2)c(C(F)(F)F)c1-c1cccc2c(C[C@H](NC(=O)C3(C(F)(F)F)CCN(CC(F)(F)F)CC3)C(=O)O)cccc12` [Compound 819], the 50% inhibitory concentration (IC50) is 100 to 1000 nM at α4β1 integrin and below 10 nM on α4β7 integrin.

On to `COc1ccc(CN2CCCC(F)C2)c(C(F)(F)F)c1-c1cccc2c(C[C@H](NC(=O)C3(C(F)(F)F)CCN(CC(F)(F)F)CC3)C(=O)O)cccc12` (some centres unmarked) [Compound 820], for which the figures for the half-maximal inhibitory concentration (IC50) on α4β1 integrin and at α4β7 integrin were above 1000 nM and 10 to 100 nM, respectively.

On to `COc1ccc(CN2CCC(F)CC2)c(C(F)(F)F)c1-c1cccc2c(C[C@H](NC(=O)C3(C(F)(F)F)CCN(CC(F)(F)F)CC3)C(=O)O)cccc12` [Compound 821], for which the results for the IC50 at α4β1 integrin and on α4β7 integrin were above 1000 nM and 10 to 100 nM, respectively.

For the compound `COc1ccc(CN2CCC(F)(F)CC2)c(C(F)(F)F)c1-c1cccc2c(C[C@H](NC(=O)C3(C(F)(F)F)CCN(CC(F)(F)F)CC3)C(=O)O)cccc12` [Compound 822], the half-inhibitory concentration (IC50) at α4β1 integrin is above 1000 nM; on α4β7 integrin, 100 to 1000 nM.

As for `COc1ccc(CN2CCC(F)(F)CC2)c(C(F)(F)F)c1-c1cccc2c(C[C@H](NC(=O)c3c(C)cccc3F)C(=O)O)cccc12` [Compound 823], the values for the half-inhibitory concentration (IC50) at α4β1 integrin and on α4β7 integrin were above 1000 nM and 100 to 1000 nM, respectively.

On to `COc1cc(CN2CCCCC2)cc(C(F)(F)F)c1-c1cccc2c(C[C@H](NC(=O)C3(C(F)(F)F)CCN(CC(F)(F)F)CC3)C(=O)O)cccc12` [Compound 824], for which the figures for the IC50 at α4β1 integrin and at α4β7 integrin were above 1000 nM and below 10 nM, respectively.

Consider `COc1ccc(CN2CCCC(F)(F)C2)c(OC)c1-c1cccc2c(C[C@H](NC(=O)C3(C(F)(F)F)CCN(CC(F)(F)F)CC3)C(=O)O)cccc12` [Compound 825], for which the IC50 is above 1000 nM at α4β1 integrin and 10 to 100 nM at α4β7 integrin.

`COc1cccc(CN2CCC(F)CC2)c1-c1cccc2c(C[C@H](NC(=O)C3(C(F)(F)F)CCN(CC(F)(F)F)CC3)C(=O)O)cccc12` [Compound 827]: the 50% inhibitory concentration (IC50) was above 1000 nM at α4β1 integrin and 10 to 100 nM at α4β7 integrin.

As for `COc1cccc(CN2CCCC(F)C2)c1-c1cccc2c(C[C@H](NC(=O)C3(C(F)(F)F)CCN(CC(F)(F)F)CC3)C(=O)O)cccc12` (some centres unmarked) [Compound 828], the results for the half-maximal inhibitory concentration (IC50) at α4β1 integrin and at α4β7 integrin were above 1000 nM and 10 to 100 nM, respectively.

As to `COc1cccc(CN2CCC(C)(C)CC2)c1-c1cccc2c(C[C@H](NC(=O)C3(C(F)(F)F)CCN(CC(F)(F)F)CC3)C(=O)O)cccc12` [Compound 829], the IC50 is above 1000 nM on α4β1 integrin and 10 to 100 nM at α4β7 integrin.

As to `COc1cc(C(F)(F)F)cc(CN2CCCCC2)c1-c1cccc2c(C[C@H](NC(=O)C3(C(F)(F)F)CCN(CC(F)(F)F)CC3)C(=O)O)cccc12` [Compound 830], the 50% inhibitory concentration (IC50) at α4β1 integrin is above 1000 nM; at α4β7 integrin, 10 to 100 nM.

For the compound `COc1cc(CN2CCCCC2)ccc1-c1cccc2c(C[C@H](NC(=O)C3(C(F)(F)F)CCN(CC(F)(F)F)CC3)C(=O)O)cccc12` [Compound 831], the half-maximal inhibitory concentration (IC50) is above 1000 nM at α4β1 integrin and below 10 nM on α4β7 integrin.

Consider `COc1cc(C(F)(F)F)c(CN2CCCCC2)cc1-c1cccc2c(C[C@H](NC(=O)C3(C(F)(F)F)CCN(CC(F)(F)F)CC3)C(=O)O)cccc12` [Compound 832], for which the IC50 at α4β1 integrin was above 1000 nM; at α4β7 integrin it was 10 to 100 nM.

On to `Cn1c(=O)c(-c2cccc3c(C[C@H](NC(=O)C4(C(F)(F)F)CCN(CC(F)(F)F)CC4)C(=O)O)cccc23)c(C(F)(F)F)c2cc(CN3CCC(F)CC3)ccc21` [Compound 833], for which the concentration for half-maximal inhibition (IC50) at α4β1 integrin is 100 to 1000 nM; at α4β7 integrin, below 10 nM.

On to `Cn1c(=O)c(-c2cccc3c(C[C@H](NC(=O)C4(C(F)(F)F)CCN(CC(F)F)CC4)C(=O)O)cccc23)c(C(F)(F)F)c2cc(CN3CCC(F)CC3)ccc21` [Compound 834], for which the IC50 on α4β1 integrin was 10 to 100 nM; at α4β7 integrin it was below 10 nM.

Regarding `Cn1c(=O)c(-c2cccc3c(C[C@H](NC(=O)C4(C(F)(F)F)CCN(CC(F)(F)F)CC4)C(=O)O)cccc23)c(C(F)(F)F)c2cc(CN3CCC(F)(F)CC3)ccc21` [Compound 835], the IC50 at α4β1 integrin lay within 100 to 1000 nM; at α4β7 integrin, 10 to 100 nM.

On to `Cn1c(=O)c(-c2cccc3c(C[C@H](NC(=O)C4(C(F)(F)F)CCN(CC(F)F)CC4)C(=O)O)cccc23)c(C(F)(F)F)c2cc(CN3CCC(F)(F)CC3)ccc21` [Compound 836], for which the half-maximal inhibitory concentration (IC50) at α4β1 integrin and at α4β7 integrin was 10 to 100 nM in each case.

`Cn1c(=O)c(-c2cccc3c(C[C@H](NC(=O)C4(C(F)(F)F)CCN(CC(F)(F)F)CC4)C(=O)O)cccc23)c(C(F)(F)F)c2cc(CN3CCC(c4ccccc4)CC3)ccc21` [Compound 837]: the concentration for half-maximal inhibition (IC50) was 100 to 1000 nM on α4β1 integrin and 10 to 100 nM at α4β7 integrin.

Usually IC50 stands for the point on the concentration scale where inhibition reaches its midpoint.
